The values that follow come from patent US20150352108A1, “AMINO-PYRIMIDINE COMPOUNDS AS INHIBITORS OF TBK1 AND/OR IKK EPSILON” (Alzheimer's Institute of America, priority 2009, published 2015).

Some results are limits rather than exact numbers.

This test addresses T1, IKKε (Homo sapiens, UniProt Q14164).
T1 construct: His-tag; made in house; host or cells: Sf9 insect cells
T1 sequence (Q14164 1-716): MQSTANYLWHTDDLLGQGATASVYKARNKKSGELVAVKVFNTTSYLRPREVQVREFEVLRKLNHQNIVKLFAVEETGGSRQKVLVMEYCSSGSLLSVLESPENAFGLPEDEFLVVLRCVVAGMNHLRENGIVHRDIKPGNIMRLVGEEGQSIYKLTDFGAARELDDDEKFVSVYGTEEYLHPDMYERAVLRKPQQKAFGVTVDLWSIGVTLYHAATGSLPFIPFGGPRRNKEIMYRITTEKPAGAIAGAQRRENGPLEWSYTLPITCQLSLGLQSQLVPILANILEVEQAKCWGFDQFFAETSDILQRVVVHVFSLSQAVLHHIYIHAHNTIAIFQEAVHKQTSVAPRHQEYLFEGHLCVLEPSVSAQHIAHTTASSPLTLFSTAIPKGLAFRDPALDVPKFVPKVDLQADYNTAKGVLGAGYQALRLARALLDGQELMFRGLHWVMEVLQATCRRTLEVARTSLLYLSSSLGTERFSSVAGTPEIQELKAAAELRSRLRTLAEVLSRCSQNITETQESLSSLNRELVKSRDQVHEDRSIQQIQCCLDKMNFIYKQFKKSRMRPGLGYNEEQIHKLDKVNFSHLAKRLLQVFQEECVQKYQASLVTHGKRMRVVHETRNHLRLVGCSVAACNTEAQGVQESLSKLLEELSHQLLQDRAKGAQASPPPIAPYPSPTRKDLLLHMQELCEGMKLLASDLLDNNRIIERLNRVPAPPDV
Kind of test: In-vitro IKKε kinase assay ([γ33]ATP filter-plate). The format is biochemical. The note with it: text bins; read-out: IC50 for inhibition of the kinase activity of IKKε. Here is the method:
IKKε enzyme was produced as a His-tag fusion in Sf9 cells and used at a final concentration of […]. TBK1 enzyme was produced as a His-tag fusion in Sf9 cells and used at a final concentration of 0.1 μg/ml. Kinase reactions were carried out in reaction buffer using myelin basic protein (Millipore, Ballerica, Mass.) or casein (Sigma, St. Louis, Mo.) as substrate at an ATP concentration equal to twice the Km,ATP value for each enzyme, corresponding to 32 μM ATP for IKKε and 60 μM ATP for TBK1, in the presence of 0.3 μCi [γ^33]ATP (PerkinElmer, Waltham, Mass.). Final enzyme concentrations were 0.1 or 0.015 μg/ml (IKKε) and 0.1 or 0.02 μg/ml (TBK1), representing “normal” and “sensitized” assay conditions respectively. Test compounds (or DMSO solvent as a control) were added prior to initiation of the reactions. Reactions were terminated after 30-45 minutes by adding 3% phosphoric acid. Terminated reactions were transferred to P-81 cellulose phosphate filterplates (Whatman, Inc., Piscataway, N.J.) and washed with 1% phosphoric acid on a vacuum apparatus. After air drying, scintillant (PerkinElmer, Waltham, Mass.) was added and the plates were read on a PerkinElmer TopCount NXT instrument. Counts were normalized to DMSO controls after background subtraction.

On to `COc1cc(NC(=O)NCCCNC(C)=O)cc(Nc2nccc(-c3ccc(OC)c(C#N)c3)n2)c1` [compound 391, N-(3-{[(3-{[4-(3-Cyano-4-methoxyphenyl)pyrimidin-2-yl]amino}-5-methoxyphenyl)carbamoyl]amino}propyl) acetamide], for which the concentration for half-maximal inhibition (IC50) (in general, the concentration that inhibits the measured activity by half) was 50 to 500 nM.

In the case of `CN1CCN(c2ccc(Nc3nccc(-c4cc(C#N)cc(OCc5ccccc5)c4)n3)cc2)CC1` [Example 244, 3-(Benzyloxy)-5-(2-{[4-(4-methylpiperazin-1-yl)phenyl]amino}pyrimidin-4-yl)benzonitrile], the IC50 lay within 50 to 500 nM.

Turning to `N#Cc1cc(-c2ccnc(Nc3ccc(N4CCOCC4)cc3)n2)ccc1OC1CCN(C(=O)Cn2ccnc2)CC1` [Example 139, 2-{[1-(1H-imidazol-1-ylacetyl)piperidin-4-yl]oxy}-5-(2-{[4-(morpholin-4-yl)phenyl]amino}pyrimidin-4-yl)benzonitrile], the IC50 lay within 5 to 50 nM.

`CN(C)C(=O)N1CCC(Oc2ccc(-c3ccnc(Nc4ccc(N5CCOCC5)cc4)n3)cc2C#N)CC1` [Example 166, 4-[2-Cyano-4-(2-{[4-(morpholin-4-yl)phenyl]amino}pyrimidin-4-yl)phenoxy]-N,N-dimethylpiperidine-1-carboxamide]: the IC50 lay within 50 to 500 nM.

As for `N#Cc1cc(-c2ccnc(Nc3ccc(N4CCOCC4)cc3)n2)ccc1OCCC1CCNCC1` [compound 472, 5-(2-{[4-(morpholin-4-yl)phenyl]amino}pyrimidin-4-yl)-2-[2-(piperidin-4-yl)ethoxy] benzonitrile], the 50% inhibitory concentration (IC50) was 50 to 500 nM.

With `CS(=O)(=O)N(c1ccc(-c2ccnc(Nc3ccc(N4CCOCC4)cc3)n2)cc1C#N)S(C)(=O)=O` [Example 167, N-[2-Cyano-4-(2-{[4-(morpholin-4-yl)phenyl]amino}pyrimidin-4-yl)phenyl]-N-(methylsulfonyl) methanesulfonamide], the IC50 was 5 to 50 nM.

For the molecule `CC(C)COC(=O)Nc1ccc(-c2ccnc(Nc3ccc(N4CCOCC4)cc3)n2)cc1C#N` [Example 180, 2-methylpropyl [2-cyano-4-(2-{[4-(morpholin-4-yl)phenyl]amino}pyrimidin-4-yl)phenyl]carbamate], the IC50 fell in the range of 50 to 500 nM.

For the molecule `Cc1ccnc(NS(=O)(=O)c2ccc(Nc3nccc(-c4ccc(OC5CCOCC5)c(C#N)c4)n3)cc2)n1` [compound 635, 4-({4-[3-Cyano-4-(tetrahydro-2H-pyran-4-yloxy)phenyl]pyrimidin-2-yl}amino)-N-(4-methylpyrimidin-2-yl)benzene-sulfonamide], the 50% inhibitory concentration (IC50) is less than 5 nM.

`COc1ccc(Nc2nccc(-c3ccc(OC(C)c4ccccc4)c(C#N)c3)n2)cc1OC` (stereo not drawn) [Example 163]: the 50% inhibitory concentration (IC50) lay within 50 to 500 nM.

In the case of `COc1ccc(Nc2nccc(-c3cccc(C#N)c3)n2)cc1OC` [compound 352, 3-{2-[(3,4-Dimethoxyphenyl)amino]pyrimidin-4-yl}benzonitrile], the concentration for half-maximal inhibition (IC50) was in the range of 5 to 50 nM.

For `N#Cc1cc(-c2ccnc(Nc3ccc(N4CCOCC4)cc3)n2)ccc1OC1CN(CCO)C1` [compound 474, 2-{[1-(2-hydroxyethyl)azetidin-3-yl]oxy}-5-(2-{[4-(morpholin-4-yl)phenyl]amino}pyrimidin-4-yl)benzonitrile], the half-inhibitory concentration (IC50) is 50 to 500 nM.

Take `N#Cc1cc(-c2ccnc(Nc3ccc(N4CCOCC4)cc3)n2)ccc1NC(=O)C(F)(F)C(F)F` [compound 441, N-[2-Cyano-4-(2-{[4-(morpholin-4-yl)phenyl]amino}pyrimidin-4-yl)phenyl]-2,2,3,3-tetrafluoropropanamide]: the IC50 was 5 to 50 nM.

Take `COc1cc(NC(=O)C2CCCC2)cc(Nc2nccc(-c3ccc(OC)c(C#N)c3)n2)c1` [compound 362, N-(3-{[4-(3-Cyano-4-methoxyphenyl)pyrimidin-2-yl]amino}-5-methoxyphenyl) cyclopentane-carboxamide]: the IC50 fell in the range of 5 to 50 nM.

In the case of `CC(C)C(=O)Nc1ccc(-c2ccnc(Nc3ccc(OCCN4CCOCC4)cc3)n2)cc1C#N` [compound 431, N-{2-cyano-4-[2-({4-[2-(morpholin-4-yl)ethoxy]phenyl}amino)pyrimidin-4-yl]phenyl}-2-methylpropanamide], the IC50 is 5 to 50 nM.

On to `CN1CCN(CCOc2ccc(Nc3nccc(-c4cccc(C#N)c4)n3)cc2)CC1` [Example 292, 3-[2-({4-[2-(4-Methylpiperazin-1-yl)ethoxy]phenyl}amino)pyrimidin-4-yl]benzonitrile], for which the concentration for half-maximal inhibition (IC50) is 50 to 500 nM.

As for `COC(=O)C(C)(C)COc1ccc(-c2ccnc(Nc3ccc(N4CCOCC4)cc3)n2)cc1C#N` [Example 84, methyl 3-[2-cyano-4-(2-{[4-(morpholin-4-yl)phenyl]amino}pyrimidin-4-yl)phenoxy]-2,2-dimethylpropanoate], the IC50 is 50 to 500 nM.

With `N#Cc1cc(Cl)cc(-c2ccnc(Nc3ccc(N4CCOCC4)cc3)n2)c1` [Example 50, 3-Chloro-5-(2-{[4-(morpholin-4-yl)phenyl]amino}pyrimidin-4-yl)benzonitrile], the half-inhibitory concentration (IC50) fell in the range of 5 to 50 nM.

On to `CC(C)NC(=O)N1CCC(Oc2ccc(-c3ccnc(Nc4ccc(N5CCOCC5)cc4)n3)cc2C#N)CC1` [Example 37, 4-[2-Cyano-4-(2-{[4-(morpholin-4-yl)phenyl]amino}pyrimidin-4-yl)phenoxy]-N-(propan-2-yl)piperidine-1-carboxamide], for which the IC50 is 50 to 500 nM.

As for `N#Cc1cc(-c2ccnc(Nc3ccc(N4CCOCC4)cc3)n2)ccc1OC1CCN(C(=O)C2CC2)C1` (stereo not drawn) [Example 151, 2-{[1-(cyclopropylcarbonyl)pyrrolidin-3-yl]oxy}-5-(2-{[4-(morpholin-4-yl)phenyl]amino}pyrimidin-4-yl)benzonitrile], the IC50 was in the range of 50 to 500 nM.

For `N#Cc1cc(-c2ccnc(Nc3ccc(N4CCOCC4)cc3)n2)ccc1Cl` [Example 102, 2-Chloro-5-(2-{[4-(morpholin-4-yl)phenyl]amino}pyrimidin-4-yl)benzonitrile], the IC50 fell in the range of 5 to 50 nM.

On to `CC(=O)NS(=O)(=O)c1ccc(Nc2nccc(-c3ccc(OC4CCOCC4)c(C#N)c3)n2)cc1` [compound 630], for which the half-maximal inhibitory concentration (IC50) was less than 5 nM.

Turning to `COc1ccc(-c2ccnc(Nc3cc(CN(C)C)c(OC)c(OC)c3)n2)cc1C#N` [Example 174, 5-[2-({3-[(Dimethylamino)methyl]-4,5-dimethoxyphenyl}amino)pyrimidin-4-yl]-2-methoxybenzonitrile], the IC50 lay within 5 to 50 nM.

In the case of `N#Cc1cc(-c2ccnc(Nc3ccc(N4CCOCC4)cc3)n2)ccc1OCCNC(=O)CCO` [Example 95], the concentration for half-maximal inhibition (IC50) fell in the range of 50 to 500 nM.

As for `N#Cc1cc(-c2ccnc(Nc3ccc(N4CCOCC4)cc3)n2)ccc1NCc1cccnc1` [Example 200, 5-(2-{[4-(Morpholin-4-yl)phenyl]amino}pyrimidin-4-yl)-2-[(pyridin-3-ylmethyl)amino] benzonitrile], the IC50 was in the range of 5 to 50 nM.

`N#Cc1cccc(-c2nc(Nc3ccc(N4CCOCC4)cc3)nc3[nH]cnc23)c1` [compound 562, 3-(2-{[4-(Morpholin-4-yl)phenyl]amino}-3H-purain-6-yl)benzonitrile]: the 50% inhibitory concentration (IC50) is 50 to 500 nM.

Turning to `N#Cc1cc(-c2ccnc(Nc3ccc(N4CCOCC4)cc3)n2)ccc1OCC1CNC1` [Example 39, 2-(azetidin-3-ylmethoxy)-5-(2-{[4-(morpholin-4-yl)phenyl]amino}pyrimidin-4-yl)benzonitrile], the half-inhibitory concentration (IC50) lay within 5 to 50 nM.

Consider `CC(=O)N1CCC(Oc2ccc(-c3ccnc(Nc4ccc(N5CCOCC5)cc4)n3)cc2C#N)C1` (stereo not drawn) [Example 195, 2-[(1-Acetylpyrrolidin-3-yl)oxy]-5-(2-{[4-(morpholin-4-yl)phenyl]amino}pyrimidin-4-yl)benzonitrile], for which the half-maximal inhibitory concentration (IC50) was in the range of 5 to 50 nM.
